# Experiments:
# Cdc25B [1] = molecular target: T1, Cdc25B (Homo sapiens, UniProt P30305); conditions: Lazo et al. (2002); cited from earlier work
# T1 sequence (P30305 1-580): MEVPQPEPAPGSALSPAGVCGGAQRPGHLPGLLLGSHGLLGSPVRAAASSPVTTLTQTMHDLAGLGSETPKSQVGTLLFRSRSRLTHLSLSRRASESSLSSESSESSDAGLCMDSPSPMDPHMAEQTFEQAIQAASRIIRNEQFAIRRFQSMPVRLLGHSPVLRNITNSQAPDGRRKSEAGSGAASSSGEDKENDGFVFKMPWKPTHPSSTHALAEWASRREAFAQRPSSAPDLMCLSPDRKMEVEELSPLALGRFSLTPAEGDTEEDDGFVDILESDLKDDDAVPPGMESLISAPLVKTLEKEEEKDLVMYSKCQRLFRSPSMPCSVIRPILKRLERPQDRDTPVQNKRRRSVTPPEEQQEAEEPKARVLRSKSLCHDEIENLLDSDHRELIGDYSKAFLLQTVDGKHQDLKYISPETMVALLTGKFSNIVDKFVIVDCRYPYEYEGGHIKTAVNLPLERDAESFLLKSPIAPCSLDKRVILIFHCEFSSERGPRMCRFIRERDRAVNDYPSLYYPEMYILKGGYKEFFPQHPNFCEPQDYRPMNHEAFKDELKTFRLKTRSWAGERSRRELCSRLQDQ
# CD45 [2] = molecular target: T2, CD45 (Homo sapiens, UniProt P08575); experiment: biochemical; conditions: read-out: inhibition of the phosphatase activity of CD45
# T2 construct: purchased Upstate (Lake Placid, N.Y.)
# T2 sequence (P08575 26-1306): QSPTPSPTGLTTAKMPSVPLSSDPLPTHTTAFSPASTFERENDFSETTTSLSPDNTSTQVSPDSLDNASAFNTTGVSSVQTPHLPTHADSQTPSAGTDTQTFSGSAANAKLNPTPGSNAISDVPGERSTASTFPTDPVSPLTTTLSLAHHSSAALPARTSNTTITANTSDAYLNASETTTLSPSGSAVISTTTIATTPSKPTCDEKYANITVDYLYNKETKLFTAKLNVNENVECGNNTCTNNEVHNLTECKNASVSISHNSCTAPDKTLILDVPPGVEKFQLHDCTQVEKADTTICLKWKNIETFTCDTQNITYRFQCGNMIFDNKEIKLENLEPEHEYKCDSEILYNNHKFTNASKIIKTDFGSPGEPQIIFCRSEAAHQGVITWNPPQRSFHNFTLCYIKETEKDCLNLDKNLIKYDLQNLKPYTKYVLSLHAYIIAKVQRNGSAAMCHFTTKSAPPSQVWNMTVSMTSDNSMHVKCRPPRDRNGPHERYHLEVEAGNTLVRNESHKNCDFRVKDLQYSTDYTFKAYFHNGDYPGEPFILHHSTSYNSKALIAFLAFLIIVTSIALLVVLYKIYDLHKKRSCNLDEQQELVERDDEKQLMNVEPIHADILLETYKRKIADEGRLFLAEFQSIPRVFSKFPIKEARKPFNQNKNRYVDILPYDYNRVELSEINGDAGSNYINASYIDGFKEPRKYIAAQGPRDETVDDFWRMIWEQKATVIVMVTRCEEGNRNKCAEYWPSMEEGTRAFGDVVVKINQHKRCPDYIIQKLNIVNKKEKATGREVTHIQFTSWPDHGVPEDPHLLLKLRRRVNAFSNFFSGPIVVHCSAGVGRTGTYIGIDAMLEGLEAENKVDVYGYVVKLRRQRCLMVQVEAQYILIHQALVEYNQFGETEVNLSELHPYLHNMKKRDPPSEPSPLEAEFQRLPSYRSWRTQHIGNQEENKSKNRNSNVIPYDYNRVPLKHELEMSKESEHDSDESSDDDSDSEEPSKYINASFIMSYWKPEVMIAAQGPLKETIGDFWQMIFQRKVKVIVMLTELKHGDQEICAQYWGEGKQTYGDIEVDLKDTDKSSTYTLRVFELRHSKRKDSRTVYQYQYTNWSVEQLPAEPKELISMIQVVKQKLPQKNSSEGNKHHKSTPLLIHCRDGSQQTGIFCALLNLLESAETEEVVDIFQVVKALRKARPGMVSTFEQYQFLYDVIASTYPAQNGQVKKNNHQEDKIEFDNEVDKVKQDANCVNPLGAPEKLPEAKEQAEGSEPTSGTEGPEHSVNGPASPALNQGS
# [3] = test system: Sterne B. anthracis spores; format: cell-based; conditions: 10 μM
# proteasome = format: biochemical, mouse
# LF = LF (Bacillus anthracis, UniProt P15917); format: biochemical
# Cdc25B [4] = molecular target: T1, Cdc25B; experiment: biochemical; conditions: read-out: % Inhibition (cdc25B)
# CD45 [5] = experiment: immunoblot of CD45 protein levels; format: cell-based, mouse; conditions: 72 hours, vs untreated or scrambled PMO
# CD45 [6] = experiment: CD45 phosphatase activity after immunoprecipitation from cell lysates; format: cell-based, mouse; conditions: 8 μM, 72 hours
# Ames B. anthracis spores = conditions: in vivo
# MEK = format: cell-based, mouse
# Sequence of LF (P15917 34-809 limits assumed): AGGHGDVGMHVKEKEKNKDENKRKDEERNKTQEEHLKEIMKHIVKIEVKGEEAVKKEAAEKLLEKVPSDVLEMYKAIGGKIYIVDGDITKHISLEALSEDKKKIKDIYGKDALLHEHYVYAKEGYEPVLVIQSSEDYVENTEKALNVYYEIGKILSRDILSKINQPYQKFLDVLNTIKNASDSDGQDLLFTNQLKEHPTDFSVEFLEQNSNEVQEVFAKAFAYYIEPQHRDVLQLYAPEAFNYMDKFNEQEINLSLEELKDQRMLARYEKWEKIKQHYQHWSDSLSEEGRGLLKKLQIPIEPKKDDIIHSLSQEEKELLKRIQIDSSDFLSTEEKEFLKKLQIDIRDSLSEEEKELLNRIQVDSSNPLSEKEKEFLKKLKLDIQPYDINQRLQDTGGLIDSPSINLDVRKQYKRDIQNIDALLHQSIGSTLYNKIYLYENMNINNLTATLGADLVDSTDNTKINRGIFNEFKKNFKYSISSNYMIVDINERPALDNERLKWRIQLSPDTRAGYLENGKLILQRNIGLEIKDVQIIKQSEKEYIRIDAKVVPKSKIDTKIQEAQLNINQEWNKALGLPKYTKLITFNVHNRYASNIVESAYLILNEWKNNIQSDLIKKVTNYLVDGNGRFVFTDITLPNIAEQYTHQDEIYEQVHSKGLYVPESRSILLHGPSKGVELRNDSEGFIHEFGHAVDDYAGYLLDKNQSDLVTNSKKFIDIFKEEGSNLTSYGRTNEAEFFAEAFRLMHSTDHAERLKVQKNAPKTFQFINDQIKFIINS
Compound,"inhibition of Cdc25, previously reported (Cdc25B [1])",anti-microbial activity (growth of the bacteria) [3],inhibition of proteasome activity (proteasome),inhibition of LF enzymatic activity (cleavage of peptide substrate) (LF),inhibition at 10 µM (Cdc25B [4]),further results
O=C1C(SCCO)=C(SCCO)C(=O)c2ccccc21 [NSC 95397],previously reported to inhibit Cdc25,do not inhibit the growth of the bacteria,neither NSC 95397 nor NSC 270012 inhibited proteasome activity,None of the compounds were observed to inhibit,83%,inhibition at 10 µM (CD45 [2]): ~94%
Cc1ccc2c(c1C)-c1c(ccc(C)c1C)C(=O)C2=O [NSC 135880],previously reported to inhibit Cdc25,,,None of the compounds were observed to inhibit,99%,
O=C1C=C(SCCO)C(=O)c2ccccc21 [NSC 148596],,,,None of the compounds were observed to inhibit,67%,
NC(=O)CCSC1=CC(=O)c2ccccc2C1=O [NSC 270011],,,,None of the compounds were observed to inhibit,25%,
NC(=O)CCCSC1=CC(=O)c2ccccc2C1=O [NSC 270012],,do not inhibit the growth of the bacteria,neither NSC 95397 nor NSC 270012 inhibited proteasome activity,None of the compounds were observed to inhibit,72%,
CD45 PMO (CCACAAACCCATGGTCATATC; all phosphorodiamidate morpholino (PMO)),,,,,,CD45 protein levels by immunoblot (CD45 [5]): dose dependent reduction; CD45 phosphatase activity following immunoprecipitation (CD45 [6]): concomitant reduction in CD45 phosphatase activity; antibody titers in surviving mice (Ames B. anthracis spores): developed protective antigen specific and lethal toxin neutralizing antibody titers; protection on re-challenge with Ames B. anthracis spores (Ames B. anthracis spores): completely protected; survival (Ames B. anthracis spores; 100 mg/kg/day): greatly increased; MEK cleavage (MEK): MEK cleavage was not prevented
